Among the data in US10246462B2, “Chemokine receptor modulators and uses thereof” (FLX Bio, Inc., priority 2016, dated 2019) are IC50 values, retold here.

Counter-ions that a name gives are not always drawn.

The experiment has as its target CCR4 (Homo sapiens (Human), UniProt P51679). The experiment in a line: Calcium mobilization (Ca Flux) assay. It counts as cell-based. The protocol:
Calcium Mobilization Assay. Calcium mobilization experiments may be performed by labeling the human T-cell line CEM with […] dye (45 min at room temperature), washing with PBS, and re-suspending into flux buffer (HBSS with 1% FBS).

Chain of CCR4 (P51679 whole entry): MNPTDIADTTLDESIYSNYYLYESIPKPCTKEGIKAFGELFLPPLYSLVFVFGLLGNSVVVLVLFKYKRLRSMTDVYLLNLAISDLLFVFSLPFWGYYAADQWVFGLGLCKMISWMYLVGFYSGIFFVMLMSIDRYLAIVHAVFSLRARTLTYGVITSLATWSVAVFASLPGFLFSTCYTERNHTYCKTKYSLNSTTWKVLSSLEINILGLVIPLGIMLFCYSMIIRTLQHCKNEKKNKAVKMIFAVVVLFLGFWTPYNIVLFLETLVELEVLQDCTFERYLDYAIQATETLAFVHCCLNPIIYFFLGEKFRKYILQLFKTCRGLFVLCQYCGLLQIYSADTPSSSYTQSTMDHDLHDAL

For orientation: IC50 means the concentration that inhibits the measured activity by half. For the compound `Cc1nn([C@H](C)c2ccc(Cl)cc2Cl)c2nc(N3CC[C@H](N4CCC[C@H]4C)[C@H](C)C3)cnc12` [Example 20, 1-((R)-1-(2,4-Dichlorophenyl)ethyl)-3-methyl-6-((3R,4S)-3-methyl-4-((R)-2-methylpyrrolidin-1-yl)piperidin-1-yl)-1H-pyrazolo[3,4-b]pyrazine hydrochloride], the 50% inhibitory concentration (IC50) is less than 100 nM. On to `Cc1nn([C@H](C)c2ccc(Cl)cc2Cl)c2nc(N3CCC(N4CCC[C@@H]4C)C(C)C3)cnc12` (stereo partly drawn) [Example 21, 1-((R)-1-(2,4-Dichlorophenyl)ethyl)-3-methyl-6-(3-methyl-4-((S)-2-methylpyrrolidin-1-yl)piperidin-1-yl)-1H-pyrazolo[3,4-b]pyrazine hydrochloride], for which the IC50 is more than 500 nM. With `Cc1nn([C@H](C)c2ccc(Cl)cc2Cl)c2nc(N3CC[C@H](N4CCC[C@@H]4C)[C@H](C)C3)cnc12` [Example 22, 1-((R)-1-(2,4-Dichlorophenyl)ethyl)-3-methyl-6-((3R,4S)-3-methyl-4-((S)-2-methylpyrrolidin-1-yl)piperidin-1-yl)-1H-pyrazolo[3,4-b]pyrazine hydrochloride] the figure was 100 to 500 nM; with `C[C@@H]1CN(c2cnc3c(C#N)nn([C@H](C)c4ccc(Cl)cc4Cl)c3n2)CC[C@@H]1N1CCCCC1` [Example 23, 1-((R)-1-(2,4-Dichlorophenyl)ethyl)-6-((3′R,4′S)-3′-methyl-[1,4′-bipiperidin]-1′-yl)-1H-pyrazolo[3,4-b]pyrazine-3-carbonitrile hydrochloride], less than 100 nM. As for `C[C@H](c1ccc(Cl)cc1Cl)n1nc(C#N)c2ncc(N3CC[C@@H](N4CCCCC4)[C@@H](C)C3)nc21` [Example 24, 1-((R)-1-(2,4-Dichlorophenyl)ethyl)-6-((3′S,4′R)-3′-methyl-[1,4′-bipiperidin]-1′-yl)-1H-pyrazolo[3,4-b]pyrazine-3-carbonitrile hydrochloride], the 50% inhibitory concentration (IC50) is more than 500 nM. Take `CC(c1ccc(Cl)cc1Cl)n1nc(C(N)=O)c2ncc(N3CCC(N4CCCCC4)C(F)C3)nc21` (stereo not shown) [Example 25, 1-(1-(2,4-Dichlorophenyl)ethyl)-6-(3′-fluoro-[1,4′-bipiperidin]-1′-yl)-1H-pyrazolo[3,4-b]pyrazine-3-carboxamide hydrochloride]: the IC50 was in the range of 100 to 500 nM. As for `CC(c1ccc(Cl)cc1Cl)n1nc(C#N)c2ncc(N3CCC(N4CCCCC4)C(F)C3)nc21` (stereo not shown) [Example 26, 1-(1-(2,4-Dichlorophenyl)ethyl)-6-(3′-fluoro-[1,4′-bipiperidin]-1′-yl)-1H-pyrazolo[3,4-b]pyrazine-3-carbonitrile 2,2,2-trifluoroacetate], the 50% inhibitory concentration (IC50) was more than 500 nM. Consider `CC(c1ccc(Cl)cc1Cl)n1nc(C(N)=O)c2ncc(N3CCC(N4CCCCC4)C(CO)C3)nc21` (stereo not shown) [Example 27, 1-(1-(2,4-Dichlorophenyl)ethyl)-6-(3′-(hydroxymethyl)-[1,4′-bipiperidin]-1′-yl)-1H-pyrazolo[3,4-b]pyrazine-3-carboxamide hydrochloride], for which the IC50 lay in the range of 100 to 500 nM.

In the case of `C[C@H](c1ccc(Cl)cc1Cl)n1nc(C#N)c2ncc(N3CC[C@@H](N4CCCCC4)[C@@H](CO)C3)nc21` [Example 28, 1-((R)-1-(2,4-Dichlorophenyl)ethyl)-6-((3′S,4′R)-3′-(hydroxymethyl)-[1,4′-bipiperidin]-1′-yl)-1H-pyrazolo[3,4-b]pyrazine-3-carbonitrile hydrochloride], the 50% inhibitory concentration (IC50) was in the range of 100 to 500 nM. In the case of `C[C@H](c1ccc(Cl)cc1Cl)n1nc(C#N)c2ncc(N3CC[C@H](N4CCCCC4)[C@H](CO)C3)nc21` [Example 29, 1-((R)-1-(2,4-Dichlorophenyl)ethyl)-6-((3′R,4′S)-3′-(hydroxymethyl)-[1,4′-bipiperidin]-1′-yl)-1H-pyrazolo[3,4-b]pyrazine-3-carbonitrile hydrochloride], the half-maximal inhibitory concentration (IC50) is less than 100 nM.
